Laboratory results taken from patent publication US12077503B2, “Substituted cyclic amides and their use as herbicides” (FMC CORPORATION, priority 2015, dated 2024).

What was measured:
Assay type in all cases: in vivo
[1] = test system: barnyardgrass (Echinochloa crus-galli); experiment: Test G Post-Emergence Protocol; details: Echinochloa crus-galli, post-emergence, 312 h; for pest or weed control at 15.625 g/ha: 15.625 g ai/ha, evaluated after 13 days (100=total damage to plant; 0=no damage to plant), read-out: Barnyardgrass damage rating; for pest or weed control at 62.5 g/ha: 62.5 g ai/ha, read-out: Barnyardgrass damage rating (100=total damage to plant; 0=no damage to plant); for pest or weed control at 62.5 g/ha / pest or weed control at 250 g/ha: evaluated after 13 days; for pest or weed control at 250 g/ha: 250 g ai/ha, read-out: damage to plant, Barnyardgrass (100=total damage to plant; 0=no damage to plant)
Outline: (§1)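 Sow in soil; grow 8 d (24/16 °C, 14 h light, 65% humidity); spray 15.625/62.5/250 g/ha in acetone:water 50:50 + 0.5% Tween 20; grow on, water twice daily; score damage 0–100 at 13 d.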

[2] = test system: ivy-leaved morning glory (Ipomoea hederacea); experiment: Test G Post-Emergence Protocol; details: Ipomoea, post-emergence, 312 h; for pest or weed control at 15.625 g/ha: 15.625 g ai/ha, evaluated after 13 days (100=total damage to plant; 0=no damage to plant), read-out: Morningglory, Ivy-leaved damage rating; for pest or weed control at 62.5 g/ha: 62.5 g ai/ha, read-out: Morningglory, Ivy-leaved damage rating (100=total damage to plant; 0=no damage to plant); for pest or weed control at 62.5 g/ha / pest or weed control at 250 g/ha: evaluated after 13 days; for pest or weed control at 250 g/ha: 250 g ai/ha, read-out: damage to plant, Morningglory, Ivy-leaved (100=total damage to plant; 0=no damage to plant)
Outline: as §1

[3] = test system: giant foxtail (Setaria faberi); experiment: Test G Post-Emergence Protocol; details: Setaria faberi, post-emergence, 312 h; for pest or weed control at 15.625 g/ha: 15.625 g ai/ha, evaluated after 13 days (100=total damage to plant; 0=no damage to plant), read-out: Foxtail, Giant damage rating; for pest or weed control at 62.5 g/ha: 62.5 g ai/ha, read-out: Foxtail, Giant damage rating (100=total damage to plant; 0=no damage to plant); for pest or weed control at 62.5 g/ha / pest or weed control at 250 g/ha: evaluated after 13 days; for pest or weed control at 250 g/ha: 250 g ai/ha, read-out: damage to plant, Foxtail, Giant (100=total damage to plant; 0=no damage to plant)
Outline: as §1

[4] = test system: redroot pigweed (Amaranthus retroflexus); experiment: Test G Post-Emergence Protocol; details: Amaranthus retroflexus, post-emergence, 312 h; for pest or weed control at 15.625 g/ha: 15.625 g ai/ha, evaluated after 13 days (100=total damage to plant; 0=no damage to plant), read-out: Pigweed, Redroot damage rating; for pest or weed control at 62.5 g/ha: 62.5 g ai/ha, read-out: Pigweed, Redroot damage rating (100=total damage to plant; 0=no damage to plant); for pest or weed control at 62.5 g/ha / pest or weed control at 250 g/ha: evaluated after 13 days; for pest or weed control at 250 g/ha: 250 g ai/ha, read-out: damage to plant, Pigweed, Redroot (100=total damage to plant; 0=no damage to plant)
Outline: as §1

[5] = test system: velvetleaf (Abutilon theophrasti); experiment: Test G Post-Emergence Protocol; details: Abutilon theophrasti, post-emergence, 312 h; for pest or weed control at 15.625 g/ha: 15.625 g ai/ha, evaluated after 13 days (100=total damage to plant; 0=no damage to plant), read-out: Velvetleaf damage rating; for pest or weed control at 62.5 g/ha: 62.5 g ai/ha, read-out: Velvetleaf damage rating (100=total damage to plant; 0=no damage to plant); for pest or weed control at 62.5 g/ha / pest or weed control at 250 g/ha: evaluated after 13 days; for pest or weed control at 250 g/ha: 250 g ai/ha, read-out: damage to plant, Velvetleaf (100=total damage to plant; 0=no damage to plant)
Outline: as §1

corn (Zea mays) [6] = experiment: Test G Post-Emergence Protocol; details: Zea mays, post-emergence, 312 h; for plant injury at 15.625 g/ha: 15.625 g ai/ha, evaluated after 13 days (100=total damage to plant; 0=no damage to plant), read-out: Corn damage rating; for plant injury at 62.5 g/ha: 62.5 g ai/ha, read-out: Corn damage rating (100=total damage to plant; 0=no damage to plant); for plant injury at 62.5 g/ha / plant injury at 250 g/ha: evaluated after 13 days; for plant injury at 250 g/ha: 250 g ai/ha, read-out: damage to plant, Corn (100=total damage to plant; 0=no damage to plant)
Outline: as §1

[7] = test system: barnyardgrass (Echinochloa crus-galli); experiment: Test G Pre-Emergence Protocol; details: Echinochloa crus-galli, pre-emergence, 312 h, evaluated after 13 days; for pest or weed control at 15.625 g/ha: 15.625 g ai/ha, read-out: Barnyard grass damage rating (100=total damage to plant; 0=no damage to plant); for pest or weed control at 62.5 g/ha: 62.5 g ai/ha, 100=total damage to plant, 0=no damage to plant, read-out: plant damage rating, Barnyardgrass; for pest or weed control at 250 g/ha: 250 g ai/ha, read-out: Barnyardgrass damage rating (100=total damage to plant; 0=no damage to plant)
Outline: (§2)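 Scores are visual damage ratings from 0 (no damage) to 100 (total plant kill), taken 13 days after treatment. Compound was sprayed one day post-sowing at 15.625, 62.5 or 250 g/ha in 50:50 acetone/water with 0.5% Tween 20.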

[8] = test system: ivy-leaved morning glory (Ipomoea hederacea); experiment: Test G Pre-Emergence Protocol; details: Ipomoea, pre-emergence, 312 h, evaluated after 13 days; for pest or weed control at 15.625 g/ha: 15.625 g ai/ha, read-out: Morning-glory, Ivy-leaved damage rating (100=total damage to plant; 0=no damage to plant); for pest or weed control at 62.5 g/ha: 62.5 g ai/ha, 100=total damage to plant, 0=no damage to plant, read-out: plant damage rating, Morningglory, Ivy-leaved; for pest or weed control at 250 g/ha: 250 g ai/ha, read-out: Morningglory, Ivy-leaved damage rating (100=total damage to plant; 0=no damage to plant)
Outline: as §2

[9] = test system: giant foxtail (Setaria faberi); experiment: Test G Pre-Emergence Protocol; details: Setaria faberi, pre-emergence, 312 h, evaluated after 13 days; for pest or weed control at 15.625 g/ha: 15.625 g ai/ha; for pest or weed control at 15.625 g/ha / pest or weed control at 250 g/ha: read-out: Foxtail, Giant damage rating (100=total damage to plant; 0=no damage to plant); for pest or weed control at 62.5 g/ha: 62.5 g ai/ha, 100=total damage to plant, 0=no damage to plant, read-out: plant damage rating, Foxtail, Giant; for pest or weed control at 250 g/ha: 250 g ai/ha
Outline: as §2

[10] = test system: redroot pigweed (Amaranthus retroflexus); experiment: Test G Pre-Emergence Protocol; details: Amaranthus retroflexus, pre-emergence, 312 h, evaluated after 13 days; for pest or weed control at 15.625 g/ha: 15.625 g ai/ha; for pest or weed control at 15.625 g/ha / pest or weed control at 250 g/ha: read-out: Pigweed, Redroot damage rating (100=total damage to plant; 0=no damage to plant); for pest or weed control at 62.5 g/ha: 62.5 g ai/ha, 100=total damage to plant, 0=no damage to plant, read-out: plant damage rating, Pigweed, Redroot; for pest or weed control at 250 g/ha: 250 g ai/ha
Outline: as §2

[11] = test system: velvetleaf (Abutilon theophrasti); experiment: Test G Pre-Emergence Protocol; details: Abutilon theophrasti, pre-emergence, 312 h, evaluated after 13 days; for pest or weed control at 15.625 g/ha: 15.625 g ai/ha; for pest or weed control at 15.625 g/ha / pest or weed control at 250 g/ha: read-out: Velvetleaf damage rating (100=total damage to plant; 0=no damage to plant); for pest or weed control at 62.5 g/ha: 62.5 g ai/ha, 100=total damage to plant, 0=no damage to plant, read-out: plant damage rating, Velvetleaf; for pest or weed control at 250 g/ha: 250 g ai/ha
Outline: as §2

corn (Zea mays) [12] = experiment: Test G Pre-Emergence Protocol; details: Zea mays, pre-emergence, 312 h, evaluated after 13 days; for plant injury at 15.625 g/ha: 15.625 g ai/ha; for plant injury at 15.625 g/ha / plant injury at 250 g/ha: read-out: Corn damage rating (100=total damage to plant; 0=no damage to plant); for plant injury at 62.5 g/ha: 62.5 g ai/ha, 100=total damage to plant, 0=no damage to plant, read-out: plant damage rating, Corn; for plant injury at 250 g/ha: 250 g ai/ha
Outline: as §2

Row | Structure (SMILES) | pest or weed control at 15.625 g/ha [1] [%] | pest or weed control at 62.5 g/ha [1] [%] | pest or weed control at 250 g/ha [1] [%] | pest or weed control at 15.625 g/ha [2] [%] | pest or weed control at 62.5 g/ha [2] [%] | pest or weed control at 250 g/ha [2] [%] | pest or weed control at 15.625 g/ha [3] [%] | pest or weed control at 62.5 g/ha [3] [%] | pest or weed control at 250 g/ha [3] [%] | pest or weed control at 15.625 g/ha [4] [%] | pest or weed control at 62.5 g/ha [4] [%] | pest or weed control at 250 g/ha [4] [%] | pest or weed control at 15.625 g/ha [5] [%] | pest or weed control at 62.5 g/ha [5] [%] | pest or weed control at 250 g/ha [5] [%] | plant injury at 15.625 g/ha (corn (Zea mays) [6]) [%] | plant injury at 62.5 g/ha (corn (Zea mays) [6]) [%] | plant injury at 250 g/ha (corn (Zea mays) [6]) [%] | pest or weed control at 15.625 g/ha [7] [%] | pest or weed control at 62.5 g/ha [7] [%] | other results
1 | CN1C[C@@H](c2ccc(C(F)(F)F)cc2)[C@H](C(=O)Nc2ccn[nH]2)C1=O (racemic) [Compound 1573] | 0 | 0 | 0 | 0 | 0 | 0 | 0 | 0 | 0 | 0 | 0 | 0 | 0 | 0 | 0 | 0 | 0 | 0 | 0 | 0 | pest or weed control at 250 g/ha [7]: 0%; pest or weed control at 15.625 g/ha [8]: 0%; pest or weed control at 62.5 g/ha [8]: 0%; pest or weed control at 250 g/ha [8]: 0%; pest or weed control at 15.625 g/ha [9]: 0%; pest or weed control at 62.5 g/ha [9]: 0%; pest or weed control at 250 g/ha [9]: 0%; pest or weed control at 15.625 g/ha [10]: 0%; pest or weed control at 62.5 g/ha [10]: 0%; pest or weed control at 250 g/ha [10]: 0%; pest or weed control at 15.625 g/ha [11]: 0%; pest or weed control at 62.5 g/ha [11]: 0%; pest or weed control at 250 g/ha [11]: 0%; plant injury at 15.625 g/ha (corn (Zea mays) [12]): 0%; plant injury at 62.5 g/ha (corn (Zea mays) [12]): 0%; plant injury at 250 g/ha (corn (Zea mays) [12]): 0%
2 | Cc1csc(NC(=O)[C@@H]2C(=O)N(C)C[C@H]2c2ccc(C(F)(F)F)cc2)c1C#N (racemic) [Compound 1576] | 10 | 60 | 70 | 0 | 20 | 20 | 30 | 40 | 70 | 0 | 0 | 0 | 0 | 0 | 10 | 0 | 20 | 10 | 30 | 70 | pest or weed control at 250 g/ha [7]: 90%; pest or weed control at 15.625 g/ha [8]: 0%; pest or weed control at 62.5 g/ha [8]: 0%; pest or weed control at 250 g/ha [8]: 0%; pest or weed control at 15.625 g/ha [9]: 30%; pest or weed control at 62.5 g/ha [9]: 70%; pest or weed control at 250 g/ha [9]: 70%; pest or weed control at 15.625 g/ha [10]: 0%; pest or weed control at 62.5 g/ha [10]: 0%; pest or weed control at 250 g/ha [10]: 20%; pest or weed control at 15.625 g/ha [11]: 0%; pest or weed control at 62.5 g/ha [11]: 0%; pest or weed control at 250 g/ha [11]: 0%; plant injury at 15.625 g/ha (corn (Zea mays) [12]): 0%; plant injury at 62.5 g/ha (corn (Zea mays) [12]): 0%; plant injury at 250 g/ha (corn (Zea mays) [12]): 20%
